Patent US8389011B2, “Pharmaceutical compositions of cholesteryl ester transfer protein inhibitors” (Bend Research, Inc., priority 2000, dated 2013)

Assay: In vitro dissolution test, microcentrifuge method, in phosphate buffered saline (PBS) pH 6.5
Type: physicochemical
Settings: for Concentration / AUC: Table 18, Drug 10 or Drug 11, PBS pH 6.5, 37° C., TCmax 1000 μg/mL
Protocol: The compositions comprising the CETP inhibitor and concentration-enhancing polymer provide enhanced concentration of the dissolved CETP inhibitor in in vitro dissolution tests. […] An appropriate PBS solution is an aqueous solution comprising 20 mM sodium phosphate (Na2HPO4), 47 mM potassium phosphate (KH2PO4), 87 mM NaCl, and 0.2 mM KCl, adjusted to pH 6.5 with NaOH. An appropriate MFD solution is the same PBS solution wherein additionally is present 7.3 mM sodium taurocholic acid and 1.4 mM of 1-palmitoyl-2-oleyl-sn-glycero-3-phosphocholine. In particular, a composition of the present invention can be dissolution-tested by adding it to MFD or PBS solution and agitating to promote dissolution.
Indeed, for some extremely insoluble CETP inhibitors, in order to identify the MDC achieved it may be necessary to use an amount of test composition such that if all of the CETP inhibitor dissolved, the CETP inhibitor concentration would be 10,000-fold or even more, that of the equilibrium concentration of the CETP inhibitor.
The MDC is taken to be the maximum value of dissolved CETP inhibitor measured over the duration of the test.
Filtration can be conducted using a 13 mm, 0.45 μm polyvinylidine difluoride syringe filter sold by Scientific Resources under the trademark TITAN®. Centrifugation is typically carried out in a polypropylene microcentrifuge tube by centrifuging at 13,000 G for 60 seconds. Other similar filtration or centrifugation methods can be employed and useful results obtained.
The spray-dried dispersions of Examples 6 and 7 were evaluated in an in vitro dissolution test using a microcentrifuge method. In this test, the spray-dried dispersion was added to a microcentrifuge tube for a Drug 2 dose of about 1000 μg/mL (7.2 mg for Example 6, 18 mg for Example 7). The tube was placed in a 37° C. sonicating bath, and 1.8 mL phosphate buffered saline (PBS) at pH 6.5 and 290 mOsm/kg was added. The samples were quickly mixed using a vortex mixer for about 60 seconds. The samples were centrifuged at 13,000 G at 37° C. for 1 minute. The resulting supernatant solution was then sampled and diluted 1:6 (by volume) with methanol and then analyzed by high-performance liquid chromatography (HPLC). The contents of the tubes were mixed on the vortex mixer and allowed to stand undisturbed at 37° C. until the next sample was taken. Samples were collected at 4, 10, 20, 40, 90, and 1200 minutes.
For Control 2, an in vitro dissolution test was performed using the procedures described above except that 1.8 mg of crystalline Drug 2 was used.
In this method, 7.2 mg of each spray-dried dispersion was added to a 2-mL microcentrifuge tube. The tube was placed in a 37° C. sonicating bath, and 1.8 mL of a phosphate-buffered saline (PBS) solution at pH 6.5 and 290 mOsm/kg was added, resulting in a TCmax of 400 μg/mL. The samples were quickly mixed using a combination of vortex mixer and sonication for about 90 seconds. The samples were centrifuged at 13,000 G at 37° C. for 1 minute. The resulting supernatant solution was then sampled and diluted 1:6 (by volume) with methanol and then analyzed by HPLC. The tubes were then mixed on the vortex mixer and allowed to stand undisturbed at 37° C. until the next sample. Samples were collected at 4, 10, 20, 40, 90 and 1200 minutes.
For Control 5, an in vitro dissolution test was performed using the procedure described above, except that 0.72 mg of non-crystalline Drug 3 was placed in a microcentrifuge tube and mixed with 1.8 mL of PBS.
In this method, 15 mg of each SDD was added to a 2-mL microcentrifuge tube. The tube was placed in a 37° C. sonicating bath, and 1.5 mL of a phosphate-buffered saline (PBS) solution at pH 6.5 and 290 mOsm/kg) was added, resulting in a TCmax of 1000 μg/mL. The samples were quickly mixed using a combination of vortex mixer and sonication for about 90 seconds.

[1] = Table 19: Drugs 10 and 11, PBS pH 6.5, TCmax 1000 μg/mL

Concentration (0 min) | Concentration (4 min) | Concentration (10 min) | Concentration (20 min) | Concentration (40 min) | Concentration (90 min) | Concentration (1200 min) | AUC (to 0 min) | AUC (to 4 min) | AUC (to 10 min) | AUC (to 20 min) | AUC (to 40 min) | AUC (to 90 min) | AUC (to 1200 min) | AUC90 [1] | Cmax, 90 [1] | AUC90 (Table 34: Drug 12, PBS) | Cmax, 90 (Table 34: Drug 12, PBS) | Structure (SMILES)
0 ng/mL | 0 ng/mL | 1000 ng/mL | 3000 ng/mL | 6000 ng/mL | 1000 ng/mL | 0 ng/mL | 0 min-μg/mL | 0 min-μg/mL | 0 min-μg/mL | 0 min-μg/mL | 100 min-μg/mL | 300 min-μg/mL | 1,100 min-μg/mL | 300 min-μg/mL | 6000 ng/mL | – | – | CC(C)c1cc2c(c(-c3ccc(F)cc3)c1[C@@H](F)c1ccc(C(F)(F)F)cc1)[C@@H](O)CC1(CCC1)C2 [Control 12, (4′S)-5′-(4-fluorophenyl)-6′-[(S)-fluoro[4-(trifluoromethyl)phenyl]methyl]-3′,4′-dihydro-7′-(1-methylethyl)-spiro[cyclobutane-1,2′(1′H)-naphthalen]-4′-ol]
0 ng/mL | 1000 ng/mL | 1000 ng/mL | 1000 ng/mL | 1000 ng/mL | 1000 ng/mL | 0 ng/mL | 0 min-μg/mL | 0 min-μg/mL | 0 min-μg/mL | 0 min-μg/mL | 0 min-μg/mL | 100 min-μg/mL | 600 min-μg/mL | 80 min-μg/mL | 1000 ng/mL | – | – | CCc1cc(Oc2cccc(N(Cc3cccc(OC(F)(F)C(F)F)c3)C[C@@H](O)C(F)(F)F)c2)ccc1Cl [Control 13, (2R)-3-[[3-(4-chloro-3-ethylphenoxy)phenyl][[3-(1,1,2,2-tetrafluoroethoxy)phenyl]methyl]amino]-1,1,1-trifluoro-2-propanol]
– | – | – | – | – | – | – | – | – | – | – | – | – | – | – | – | <88 min-μg/mL | <1000 ng/mL | CC[C@@H]1C[C@H](N(Cc2cc(C(F)(F)F)cc(C(F)(F)F)c2)C(=O)OC)c2cc(C(F)(F)F)ccc2N1C(=O)OC(C)C [Control 14, [2R,4S]4-[(3,5-bis-trifluoromethyl-benzyl)-methoxycarbonyl-amino]-2-ethyl-6-trifluoromethyl-3,4-dihydro-2H-quinoline-1-carboxylic acid isopropyl ester]
